28 compounds from US7388017B2, “Inhibitors of serine proteases, particularly hepatitis C virus NS3 protease” (Vertex Pharmaceuticals Incorporated, priority 1996, dated 2008) can be followed below.

The Ki is a dissociation constant, usually derived from enzyme kinetics or from competition with a known ligand.

This assay concerns the target T1, HCV NS3 protease (Hepatitis C virus genotype 1a, UniProt P27958).
T1 construct: more particularly HCV NS3 proteases
The assay can be described thus: Enzyme inhibition of HCV NS3 serine protease (cleavage of peptide substrate / EDVV AbuC-p-nitroanilide, with or without NS4A). Type of assay: biochemical. The following applies: Enzyme inhibition data; Ki from rate vs [inhibitor] plots, Morrison tight binding competitive inhibition fit; 30 C, pH 7.8; read-out: Ki. As to the method:
Cleavage reactions were quenched by the addition of an equal volume of a mixture of 10% TFA:acetonitrile (1:1) and activity was assessed on a reversed phase HPLC column (Rainin C18 Microsorb-MV, […], 4.6×250 mm; 0-50% acetonitrile, 0.1% TFA@ 3.33% min) using a Hewlett Packard 1050 instrument with auto-injection and diode array detection at 210 nm and 280 nm (where appropriate). Peptide elution fragments were collected and identified by mass spectrometry and N-terminal sequence analysis. Fragment identity and concentration was further verified by authentic, synthesized products. Initial rates of cleavage were determined at <20% substrate conversion and catalytic parameters were determined assuming Michaelis-Menten kinetics using the MultiFit program (Day Computing, Cambridge, Mass.).
Spectrophotometric assays were run in a 96-well microtiter plate at 30 C, using a SpectraMax 250 reader (Molecular Devices, Sunnyvale, Calif.) with kinetic capability. Cleavage of EDVV AbuC-p-nitroanilide (5A-pNA) substrate was performed with or without […] in the same buffer used for HPLC assays at 30 C, and pNA release was monitored at 405 nm. The extinction-coefficient of p-nitroaniline is independent of pH at values of 5.5. and above [Tuppy, H., et al., Hoppe-Seyler's Z. Physiol. Chem., 329, pp. 278-288 (1962)]; Raybuck and Luong, unpublished observations).
Kinetic constants for the rapid equilibrium ordered bisubstrate reaction were determined from rate vs [4A], [EDVV AbuC-pNA] data by non-linear least squares fitting to equation 1 [Morrison, J. F. Biochim. Biophys. Acta, 185, pp. 269-286 (1969)] as described in the text. Kii and Kis values for peptidyl inhibitors were determined from rate vs [inhibitor], [substrate] data and fitting to the equation for mixed inhibition: rate=Vmax[S]/{Km(1+[I]/Kis)+[S](1+[I]/Kii)} The commercial program KinetAsyst (StateCollege, Pa.) was used for both procedures. Ki values were calculated from rate vs [inhibitor] plots by a nonlinear least squares fit of the data to the equation of Morrison for tight binding competitive inhibition [Morrison, J. F. Biochim. Biophys. Acta, 185, pp. 269-286 (1969)]. The KineTic program (BioKin Ltd) was used for this procedure.
Ki values are expressed in μM. Category “A” indicates <1 μM inhibition; category “B” indicates 1-100 μM inhibition; category “C” indicates >100 μM.

Starred links: 1 amine or outer side, 2 acyl side, 3 side chain; linkers in the order of their positions; H or OH if unused. Non-standard residues stand in square brackets, D forms with d. Residues, ends and D or L forms follow the SMILES beside them. Groups on a side chain read outwards from the residue. *: point of attachment. CH2(1-naphthyl) = c1ccc2c(C*)cccc2c1; Benzyl(3,4-Cl2) = Clc1ccc(C*)cc1Cl; Pyrazinecarbonyl = O=C(c1cnccn1)*; NH(3-Cl-phenyl) = Clc1cccc(N*)c1; X26 = Clc1ccc(-c2ncc(C*)s2)cc1; X35 = Cc1noc(C)c1-c1nc(C*)no1; X36 = c1ccc(-c2ccc(C*)cc2)cc1; Hyp = O=C(O)[CH]1C[CH](O)CN1; X25 = c1ccc(-c2nc(C*)no2)cc1; X5 = c1ccc(Oc2cccc(C*)c2)cc1; X11 = c1ccc(-c2ccccc2C*)cc1; X2 = COc1ccccc1-c1nc(C*)no1; X21 = FC(F)(F)Oc1cccc(C*)c1; X27 = Fc1cc2c(c(C*)c1)OCOC2; X7 = O=C(c1ccc(Cl)c(Cl)c1)*; X20 = FC(F)(F)c1cccc(C*)c1; X24 = FC(F)(F)c1ccc(C*)cc1; X4 = FC(F)(F)Oc1ccc(C*)cc1; Isovaleryl = CC(C)CC(=O)*; X15 = Clc1cc2c(cc1C*)OCO2; X31 = Clc1ccc2scc(C*)c2c1; X40 = CC(C)(C)c1nc(C*)no1; X10 = c1ccc2cc(C*)ccc2c1; X32 = Clc1ccc(N*)c(Cl)c1; X42 = Clc1cccc(N*)c1Cl; Abu = CC[CH](N)C(=O)O; X22 = N#Cc1cccc(C*)c1; X33 = N#Cc1ccc(C*)cc1; CO = O=C([*:1])[*:2]; X29 = Fc1ccc(C*)cc1F; Bz = O=C(c1ccccc1)*; X1 = Cc1noc(C)c1C*

T1 sequence (P27958 1027-1208): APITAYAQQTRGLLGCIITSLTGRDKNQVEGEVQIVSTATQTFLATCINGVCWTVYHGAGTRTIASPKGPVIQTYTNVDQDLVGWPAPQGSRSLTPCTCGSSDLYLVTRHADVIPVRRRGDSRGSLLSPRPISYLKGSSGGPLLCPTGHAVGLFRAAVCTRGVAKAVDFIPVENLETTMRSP

On to `CCC(C=O)NC(=O)C1CC(OCc2cccc(Oc3ccccc3)c2)CN1C(=O)C(NC(=O)C(NC(=O)c1cnccn1)C(C)C)C(C)C` (stereo not shown) [Compound 1] (Pyrazinecarbonyl-VV[Hyp](X5)[Abu]-aldehyde; configuration not given here), for which the Ki was 1 to 100 µM.

Turning to `CCC(C=O)NC(=O)C1CC(OCc2ccc(-c3ccccc3)cc2)CN1C(=O)C(NC(=O)C(NC(=O)c1cnccn1)C(C)C)C(C)C` (stereo not shown) [Compound 2] (Pyrazinecarbonyl-VV[Hyp](X36)[Abu]-aldehyde; configuration not given here), the inhibitory constant (Ki) lay in the range of 1 to 100 µM.

On to `CCC(C=O)NC(=O)C1CC(OCc2noc(-c3ccccc3)n2)CN1C(=O)C(NC(=O)C(NC(=O)c1cnccn1)C(C)C)C(C)C` (stereo not shown) [Compound 3] (Pyrazinecarbonyl-VV[Hyp](X25)[Abu]-aldehyde; configuration not given here), for which the Ki was 1 to 100 µM.

On to `CCC(C=O)NC(=O)C1CC(OCc2noc(-c3c(C)noc3C)n2)CN1C(=O)C(NC(=O)C(NC(=O)c1cnccn1)C(C)C)C(C)C` (stereo not shown) [Compound 5] (Pyrazinecarbonyl-VV[Hyp](X35)[Abu]-aldehyde; configuration not given here), for which the inhibition constant (Ki) is 1 to 100 µM.

With `CCC(C=O)NC(=O)C1CC(OCc2noc(C(C)(C)C)n2)CN1C(=O)C(NC(=O)C(NC(=O)c1cnccn1)C(C)C)C(C)C` (stereo not shown) [Compound 6] (Pyrazinecarbonyl-VV[Hyp](X40)[Abu]-aldehyde; configuration not given here), the inhibition constant Ki was 1 to 100 µM.

Consider `CCC(C=O)NC(=O)C1CC(OCc2cc(F)cc3c2OCOC3)CN1C(=O)C(NC(=O)C(NC(=O)c1cnccn1)C(C)C)C(C)C` (stereo not shown) [Compound 8] (Pyrazinecarbonyl-VV[Hyp](X27)[Abu]-aldehyde; configuration not given here), for which the Ki lay within 1 to 100 µM.

`CCC(C=O)NC(=O)C1CC(OCc2cccc(OC(F)(F)F)c2)CN1C(=O)C(NC(=O)C(NC(=O)c1cnccn1)C(C)C)C(C)C` (stereo not shown) [Compound 9] (Pyrazinecarbonyl-VV[Hyp](X21)[Abu]-aldehyde; configuration not given here): the Ki was in the range of 1 to 100 µM.

For `CCC(C=O)NC(=O)C1CC(OCc2ccc(Cl)c(Cl)c2)CN1C(=O)C(NC(=O)C(NC(=O)c1cnccn1)C(C)C)C(C)C` (stereo not shown) [Compound 10] (Pyrazinecarbonyl-VV[Hyp](Benzyl(3,4-Cl2))[Abu]-aldehyde; configuration not given here), the Ki is 1 to 100 µM.

As to `CCC(C=O)NC(=O)C1CC(OCc2ccccc2-c2ccccc2)CN1C(=O)C(NC(=O)C(NC(=O)c1cnccn1)C(C)C)C(C)C` (stereo not shown) [Compound 11] (Pyrazinecarbonyl-VV[Hyp](X11)[Abu]-aldehyde; configuration not given here), the inhibition constant Ki fell in the range of 1 to 100 µM.

Consider `CCC(C=O)NC(=O)C1CC(OCc2c(C)noc2C)CN1C(=O)C(NC(=O)C(NC(=O)c1cnccn1)C(C)C)C(C)C` (stereo not shown) [Compound 12] (Pyrazinecarbonyl-VV[Hyp](X1)[Abu]-aldehyde; configuration not given here), for which the inhibitory constant (Ki) was 1 to 100 µM.

With `CCC(C=O)NC(=O)C1CC(OCc2cc3c(cc2Cl)OCO3)CN1C(=O)C(NC(=O)C(NC(=O)c1cnccn1)C(C)C)C(C)C` (stereo not shown) [Compound 13] (Pyrazinecarbonyl-VV[Hyp](X15)[Abu]-aldehyde; configuration not given here), the Ki is 1 to 100 µM.

As to `CCC(C=O)NC(=O)C1CC(OCc2noc(-c3ccccc3OC)n2)CN1C(=O)C(NC(=O)C(NC(=O)c1cnccn1)C(C)C)C(C)C` (stereo not shown) [Compound 14] (Pyrazinecarbonyl-VV[Hyp](X2)[Abu]-aldehyde; configuration not given here), the inhibitory constant (Ki) lay within 1 to 100 µM.

Turning to `CCC(C=O)NC(=O)C1CC(OCc2ccc(C#N)cc2)CN1C(=O)C(NC(=O)C(NC(=O)c1cnccn1)C(C)C)C(C)C` (stereo not shown) [Compound 15] (Pyrazinecarbonyl-VV[Hyp](X33)[Abu]-aldehyde; configuration not given here), the inhibitory constant (Ki) was in the range of 1 to 100 µM.

For the compound `CCC(C=O)NC(=O)C1CC(OCc2cccc(C(F)(F)F)c2)CN1C(=O)C(NC(=O)C(NC(=O)c1cnccn1)C(C)C)C(C)C` (stereo not shown) [Compound 16] (Pyrazinecarbonyl-VV[Hyp](X20)[Abu]-aldehyde; configuration not given here), the inhibitory constant (Ki) was 1 to 100 µM.

Regarding `CCC(C=O)NC(=O)C1CC(OCc2ccc(C(F)(F)F)cc2)CN1C(=O)C(NC(=O)C(NC(=O)c1cnccn1)C(C)C)C(C)C` (stereo not shown) [Compound 17] (Pyrazinecarbonyl-VV[Hyp](X24)[Abu]-aldehyde; configuration not given here), the inhibitory constant (Ki) is 1 to 100 µM.

For the compound `CCC(C=O)NC(=O)C1CC(OCc2ccc(OC(F)(F)F)cc2)CN1C(=O)C(NC(=O)C(NC(=O)c1cnccn1)C(C)C)C(C)C` (stereo not shown) [Compound 18] (Pyrazinecarbonyl-VV[Hyp](X4)[Abu]-aldehyde; configuration not given here), the inhibition constant Ki is 1 to 100 µM.

As to `CCC(C=O)NC(=O)C1CC(OCc2ccc3ccccc3c2)CN1C(=O)C(NC(=O)C(NC(=O)c1cnccn1)C(C)C)C(C)C` (stereo not shown) [Compound 20] (Pyrazinecarbonyl-VV[Hyp](X10)[Abu]-aldehyde; configuration not given here), the Ki was 1 to 100 µM.

Consider `CCC(C=O)NC(=O)C1CC(OCc2cccc(C#N)c2)CN1C(=O)C(NC(=O)C(NC(=O)c1cnccn1)C(C)C)C(C)C` (stereo not shown) [Compound 21] (Pyrazinecarbonyl-VV[Hyp](X22)[Abu]-aldehyde; configuration not given here), for which the inhibition constant Ki lay within 1 to 100 µM.

Take `CCC(C=O)NC(=O)C1CC(OCc2ccc(F)c(F)c2)CN1C(=O)C(NC(=O)C(NC(=O)c1cnccn1)C(C)C)C(C)C` (stereo not shown) [Compound 22] (Pyrazinecarbonyl-VV[Hyp](X29)[Abu]-aldehyde; configuration not given here): the Ki lay within 1 to 100 µM.

On to `CCC(C=O)NC(=O)C1CC(OCc2csc3ccc(Cl)cc23)CN1C(=O)C(NC(=O)C(NC(=O)c1cnccn1)C(C)C)C(C)C` (stereo not shown) [Compound 23] (Pyrazinecarbonyl-VV[Hyp](X31)[Abu]-aldehyde; configuration not given here), for which the Ki was in the range of 1 to 100 µM.

For `CCC(C=O)NC(=O)C1CC(OCc2cnc(-c3ccc(Cl)cc3)s2)CN1C(=O)C(NC(=O)C(NC(=O)c1cnccn1)C(C)C)C(C)C` (stereo not shown) [Compound 24] (Pyrazinecarbonyl-VV[Hyp](X26)[Abu]-aldehyde; configuration not given here), the Ki was in the range of 1 to 100 µM.

As to `CCC(C=O)NC(=O)C1CC(OCc2cccc3ccccc23)CN1C(=O)C(NC(=O)C(NC(=O)c1cnccn1)C(C)C)C(C)C` (stereo not shown) [Compound 26] (Pyrazinecarbonyl-VV[Hyp](CH2(1-naphthyl))[Abu]-aldehyde; configuration not given here), the inhibition constant Ki lay in the range of 1 to 100 µM.

For the compound `CCC(C=O)NC(=O)C1CC(OC(=O)c2ccc(Cl)c(Cl)c2)CN1C(=O)C(NC(=O)C(NC(=O)c1cnccn1)C(C)C)C(C)C` (stereo not shown) [Compound 27] (Pyrazinecarbonyl-VV[Hyp](X7)[Abu]-aldehyde; configuration not given here), the inhibition constant (Ki) lay in the range of 1 to 100 µM.

`CCC(C=O)NC(=O)C1CC(OC(=O)c2ccccc2)CN1C(=O)C(NC(=O)C(NC(=O)c1cnccn1)C(C)C)C(C)C` (stereo not shown) [Compound 28] (Pyrazinecarbonyl-VV[Hyp](Bz)[Abu]-aldehyde; configuration not given here): the Ki was 1 to 100 µM.

As to `CCC(C=O)NC(=O)C1CC(OC(=O)CC(C)C)CN1C(=O)C(NC(=O)C(NC(=O)c1cnccn1)C(C)C)C(C)C` (stereo not shown) [Compound 29] (Pyrazinecarbonyl-VV[Hyp](Isovaleryl)[Abu]-aldehyde; configuration not given here), the Ki was 1 to 100 µM.

With `CCC(C=O)NC(=O)C1CC(OC(=O)Nc2ccc(Cl)cc2Cl)CN1C(=O)C(NC(=O)C(NC(=O)c1cnccn1)C(C)C)C(C)C` (stereo not shown) [Compound 30] (Pyrazinecarbonyl-VV[Hyp]([CO-X32])[Abu]-aldehyde; configuration not given here), the inhibition constant (Ki) was 1 to 100 µM.

For the compound `CCC(C=O)NC(=O)C1CC(OC(=O)Nc2cccc(Cl)c2Cl)CN1C(=O)C(NC(=O)C(NC(=O)c1cnccn1)C(C)C)C(C)C` (stereo not shown) [Compound 31] (Pyrazinecarbonyl-VV[Hyp]([CO-X42])[Abu]-aldehyde; configuration not given here), the inhibition constant (Ki) was 1 to 100 µM.

In the case of `CCC(C=O)NC(=O)C1CC(OC(=O)Nc2cccc(Cl)c2)CN1C(=O)C(NC(=O)C(NC(=O)c1cnccn1)C(C)C)C(C)C` (stereo not shown) [Compound 32] (Pyrazinecarbonyl-VV[Hyp]([CO-NH(3-Cl-phenyl)])[Abu]-aldehyde; configuration not given here), the Ki is 1 to 100 µM.
